Like-named read-outs stand apart in the source and are kept apart here.
Assays:
OATP2B1 = target: T1, OATP2B1 (Homo sapiens, UniProt O94956); assay: OATP uptake assay, OATP2B1; format: cell-based; conditions: reference inhibitor; experiments not documented
T1 construct: expressed in transfected cells; host or cells: A431 epidermoid carcinoma cells
T1 sequence (O94956 1-709): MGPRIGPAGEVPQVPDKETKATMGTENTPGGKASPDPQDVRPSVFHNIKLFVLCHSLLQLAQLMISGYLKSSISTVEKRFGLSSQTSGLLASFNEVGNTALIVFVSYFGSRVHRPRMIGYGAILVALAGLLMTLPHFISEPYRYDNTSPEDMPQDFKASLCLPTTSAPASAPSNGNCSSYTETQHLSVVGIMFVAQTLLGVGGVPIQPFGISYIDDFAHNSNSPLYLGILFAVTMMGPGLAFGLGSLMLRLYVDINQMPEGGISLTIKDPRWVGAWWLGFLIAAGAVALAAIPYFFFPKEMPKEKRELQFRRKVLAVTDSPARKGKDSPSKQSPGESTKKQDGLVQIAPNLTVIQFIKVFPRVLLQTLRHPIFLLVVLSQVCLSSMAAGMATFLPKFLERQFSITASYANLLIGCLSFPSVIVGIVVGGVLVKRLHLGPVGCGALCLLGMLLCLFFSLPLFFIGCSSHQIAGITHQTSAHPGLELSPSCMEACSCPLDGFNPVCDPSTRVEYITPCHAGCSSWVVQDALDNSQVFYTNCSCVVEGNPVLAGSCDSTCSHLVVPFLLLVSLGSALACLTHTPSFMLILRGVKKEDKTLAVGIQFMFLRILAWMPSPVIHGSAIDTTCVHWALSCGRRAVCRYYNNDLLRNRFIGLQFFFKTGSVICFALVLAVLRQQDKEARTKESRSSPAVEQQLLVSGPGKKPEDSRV
Procedure: (§1) Cell lines: A431 cells overexpressing OATP1B1 or OATP2B1, and their mock transfected controls were generated and characterized previously. The cell lines were cultured in DMEM (Gibco, Thermofisher Scientific, Waltham, MA, USA), supplemented with 10% fetal bovine serum, 2 mM L-glutamine, 100 μg/mL streptomycin, and 100 units/mL penicillin at 37 °C and 5% CO2.
(§2) OATP uptake assay: Prior to the experiment, A431 cells (8 × 10^4/well) were seeded on 96-well plates in 200 μL cell culture medium. After 16–24 h, the cells were washed with 200 μL PBS, three times and pre-incubated with 20–200 μM HQNO2-L-Pro, or buffer without HQNO2-L-Pro for 5 min at 37 °C in 50 μL HBSS (Hank’s Balanced Salt Solution, pH 7.4; OATP1B1) or uptake buffer (pH 5.5; OATP2B1 [63]). The reaction was started by the addition of disulfopyrene (6,8-dihydroxy-1,3-pyrenedisulfonic acid disodium salt, Sigma, Darmstadt, Germany) at a final concentration of 10 μM (OATP1B1) or pyranine (8-hydroxypyrene-1,3-pyrenetrisulfonic acid trisodium salt, Sigma, Darmstadt, Germany) at a final concentration of 20 μM (OATP2B1), and the cells were further incubated at 37 °C for 10 min (OATP1B1) or 15 min (OATP2B1). The reaction was stopped by removing the supernatant after which the cells were washed three times with ice-cold PBS. Fluorescence (in 200 μL PBS) was determined using an Enspire plate reader (PerkinElmer, Waltham, MA, USA) with excitation/emission wavelengths of 460/510 nm. OATP-dependent transport was calculated by subtracting fluorescence measured in mock transfected cells. Transport activity was calculated based on the fluorescence signal in the absence (100%) of HQNO2-L-Pro. Experiments were repeated in at least three biological replicates.

OATP1B1 = target: T2, OATP1B1 (Homo sapiens, UniProt Q9Y6L6); assay: OATP uptake assay, OATP1B1; format: cell-based; conditions: reference inhibitor; experiments not documented
T2 construct: expressed in transfected cells; host or cells: A431 epidermoid carcinoma cells
T2 sequence (Q9Y6L6 1-691): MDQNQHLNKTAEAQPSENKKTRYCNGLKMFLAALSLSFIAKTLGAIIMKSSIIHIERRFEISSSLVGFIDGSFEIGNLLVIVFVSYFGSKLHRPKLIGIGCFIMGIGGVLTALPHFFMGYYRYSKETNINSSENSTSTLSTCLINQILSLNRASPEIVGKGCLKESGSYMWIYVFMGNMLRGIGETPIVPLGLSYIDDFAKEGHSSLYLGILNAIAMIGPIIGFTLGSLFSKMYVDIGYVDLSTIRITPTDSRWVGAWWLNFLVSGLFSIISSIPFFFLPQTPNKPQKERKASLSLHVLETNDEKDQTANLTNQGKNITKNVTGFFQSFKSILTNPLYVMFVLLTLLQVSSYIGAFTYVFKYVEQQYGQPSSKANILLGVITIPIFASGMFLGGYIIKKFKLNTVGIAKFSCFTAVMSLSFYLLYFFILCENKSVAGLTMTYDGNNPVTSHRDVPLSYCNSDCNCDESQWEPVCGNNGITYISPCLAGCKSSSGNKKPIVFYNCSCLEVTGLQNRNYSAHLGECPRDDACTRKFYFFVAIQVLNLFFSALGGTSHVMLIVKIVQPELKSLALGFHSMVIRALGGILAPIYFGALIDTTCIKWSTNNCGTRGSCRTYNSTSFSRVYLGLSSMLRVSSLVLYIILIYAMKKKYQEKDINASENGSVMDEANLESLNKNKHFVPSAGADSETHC
Procedure: as §1, §2

MES-SA/Dx5 = assay: In vitro cytotoxicity, MES-SA/Dx5 cells (fluorescent protein readout); format: cell-based, human; conditions: Homo sapiens, MES-SA/Dx5; 144 h exposure
Source text: (§3) Cell lines: all cell culture reagents were obtained from Sigma-Aldrich; plasticware was purchased from Sarstedt (Nümbrecht, Germany); Human colon Colo205 (chemo-sensitive, ATCC-CCL-222) and Colo320 (Pgp/MDR1-expressing, doxorubicin-resistant, ATCC-CCL-220.1) adenocarcinoma cell lines were purchased from LGC Promochem, Teddington, UK; MES-SA and MES-SA/Dx5 uterine sarcoma cell lines were obtained from ATCC, where they were characterized by DNA fingerprinting. The expression of the Pgp efflux pump of MES-SA/Dx5 was proven by Western blot analysis in our former report, and was also reported for the Colo320 cells. The MES-SA and MES-SA/Dx5 cells used in this study were previously engineered to express the fluorescent proteins mCherry and eGFP, respectively, by lentiviral transduction.
(§4) MES-SA cell lines were maintained in DMEM, supplemented with 10% fetal bovine serum, 5 mmol/L glutamine, and 50 units/mL penicillin and streptomycin. Cells were tested and resulted negative for mycoplasma contamination with the MycoAlert mycoplasma detection Kit (Lonza Group, Basel, Switzerland). One week prior to the cytotoxicity assays, Dx5 eGFP cells were selected in 500 nM doxorubicin for one passage to ensure the overexpression of P-glycoprotein.
(§5) Cytotoxicity assays: The tested compounds were dissolved in PBS buffer to prepare 5 mM stock solutions, which were diluted in complete culture medium.
(§6) In the case of the MES-SA and MES-SA/Dx5 cells, cell suspensions of the fluorescent cell lines were pre-mixed in a 1:1 ratio and seeded in 20 µL medium in a density of 2500 cells/well (1250 cells/well each) in a 384-well plate. After an overnight incubation, a serial dilution of the compounds was added to the plate in a final volume of 60 µL. The P-gp inhibitor tariquidar was added to the cells 15 min prior to the test compounds. After 144 h of incubation, plates were measured for the fluorescent intensity of mCherry (EX/EM: 585 nm/610 nm) and eGFP (EX/EM: 485 nm/510 nm). Cell seeding, aspiration of medium, and addition of drugs were performed by a Hamilton StarLet automated liquid handling robot.
(§7) Inhibition of the cell growth (expressed as IC50: inhibitory concentration that reduces by 50% the growth of the cells exposed to the tested compounds) was determined from the sigmoid curve where 100 − ((ODsample − ODmedium control)/(ODcell control − ODmedium control)) × 100 values were plotted against the logarithm of compound concentrations. Curves for the data obtained on Colo205 and Colo320 cells were fitted by GraphPad Prism software (2021, Graphpad Software, version 7.00, San Diego, CA, USA) using the sigmoidal dose–response model (comparing variable and fixed slopes). From the MES-SA cell data, the IC50 values were calculated by our custom program, written by J. Sessler in C#. The p values were calculated by Student’s t-test. The IC50 values were always obtained from at least three independent experiments.

Colo320 [1] = assay: In vitro cytotoxicity, Colo320 cells (MTT); format: cell-based, human; conditions: Homo sapiens, COLO 320; 72 h exposure
Source text: as §3
(§8) The colon adenocarcinoma cells were cultured in RPMI 1640 medium supplemented with 10% heat-inactivated fetal bovine serum, 2 mM L-glutamine, 1 mM sodium pyruvate, and 100 mM HEPES. The cells were incubated at 37 °C, in a 5% CO2, 95% air atmosphere.
as §5
(§9) In the case of the Colo205 and Colo320 cells, two-fold serial dilutions were prepared in 100 μL medium. The semi-adherent colon adenocarcinoma cells were treated with Trypsin-Versene (EDTA) solution. They were adjusted to a density of 1 × 10^4 cells in 100 μL of RPMI 1640 medium and were added to each well, with the exception of the medium control wells. The final volume of the wells containing compounds and cells was 200 μL. The plates containing Colo205 and Colo320 cells were incubated at 37 °C for 72 h; at the end of the incubation period, 20 μL of 3-(4,5-dimethyl-2-thiazolyl)-2,5-diphenyl-2H-tetrazolium bromide (MTT) solution (from a stock solution of 5 mg/mL) was added to each well. After incubation at 37 °C for 4 h, 100 μL of sodium dodecyl sulfate (SDS) solution (10% in 0.01 M HCI) was added to each well, and the plates were further incubated at 37 °C overnight. Cell growth was determined by measuring the optical density (OD) at 540/630 nm with a Multiskan EX plate reader (Thermo Labsystems, Cheshire, WA, USA).
as §7

MES-SA = assay: In vitro cytotoxicity, MES-SA cells (fluorescent protein readout); format: cell-based, human; conditions: Homo sapiens, MES-SA; 144 h exposure
Source text: as §3, §4, §5, §6, §7

Colo205 [2] = assay: In vitro cytotoxicity, Colo205 cells (MTT); format: cell-based, human; conditions: Homo sapiens, COLO 205; 72 h exposure
Source text: as §3, §8, §5, §9
as §7, with “From the MES-SA cell data, the IC50 values were calculated by our custom program, written by J. Sessler in C#. The p values were calculated by Student’s t-test. The IC50 values were always obtained from at least three independent experiments.” left out

Colo320 [3] = tested on: Colo320; design: method as in PMID 32500882; conditions: cited from earlier work
HSA site I (Trp-214) = target: T3, HSA site I (Trp-214) (Homo sapiens, UniProt P02768); design: method as in PMID 32500882; conditions: cited from earlier work
T3 construct: purchased Sigma-Aldrich (Darmstadt, Germany) A8763

[4] = design: method as in earlier work; conditions: pH 7.40, cited from earlier work
Colo205 [5] = tested on: Colo205; design: method as in PMID 32500882; conditions: 72 h exposure; cited from earlier work
HSA site II = target: T4, HSA site II (Homo sapiens, UniProt P02768); design: method as in PMID 32500882; conditions: cited from earlier work
T4 construct: purchased Sigma-Aldrich (Darmstadt, Germany) A8763
T4 sequence (P02768 25-609): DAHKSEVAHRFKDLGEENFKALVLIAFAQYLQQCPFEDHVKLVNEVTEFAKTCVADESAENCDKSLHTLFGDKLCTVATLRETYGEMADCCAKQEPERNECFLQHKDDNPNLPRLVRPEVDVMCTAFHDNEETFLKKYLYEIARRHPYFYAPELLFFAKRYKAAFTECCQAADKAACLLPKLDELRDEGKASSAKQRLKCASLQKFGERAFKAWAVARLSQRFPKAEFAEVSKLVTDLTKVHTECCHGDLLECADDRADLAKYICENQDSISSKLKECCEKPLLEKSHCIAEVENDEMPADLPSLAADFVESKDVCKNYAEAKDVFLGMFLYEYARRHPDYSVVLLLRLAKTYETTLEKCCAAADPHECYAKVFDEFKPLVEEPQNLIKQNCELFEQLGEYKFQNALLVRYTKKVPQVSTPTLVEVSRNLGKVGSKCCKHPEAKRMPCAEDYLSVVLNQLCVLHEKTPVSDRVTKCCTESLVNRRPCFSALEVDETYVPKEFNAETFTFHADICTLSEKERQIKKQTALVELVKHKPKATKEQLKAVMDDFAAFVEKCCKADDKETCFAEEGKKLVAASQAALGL

T3 sequence (P02768 25-609): as above

O=C1OC(c2ccc(O)c(S(=O)(=O)O)c2)(c2ccc(O)c(S(=O)(=O)O)c2)c2c(Br)c(Br)c(Br)c(Br)c21 [bromosulfophthalein, reference compound]
effect on OATP2B1 transport (OATP2B1): inhibited the transport | effect on OATP1B1 transport (OATP1B1): inhibited the transport

COc1cccc2c1C(=O)c1c(O)c3c(c(O)c1C2=O)C[C@@](O)(C(=O)CO)C[C@@H]3O[C@H]1C[C@H](N)[C@H](O)[C@H](C)O1 [doxorubicin, reference compound]
IC50 (MES-SA/Dx5): 4 ± 1 µM | IC50 (Colo320 [1]): 5.4 ± 0.9 µM | IC50 (MES-SA): 0.03 ± 0.01 µM | IC50 (Colo205 [2]): 0.71 ± 0.02 µM

Cc1ccc(C(C)C)cc1.O=C(O)[C@@H]1CCC[NH+]1Cc1cc(Cl)c2ccc[n+]3c2c1[O][Ru-]3[Cl].[Cl-] [RuCym-HQCl-L-Pro]
IC50 (Colo320 [3]; 72 h exposure): > 100 µM | Selectivity ratio IC50 (Colo205)/IC50 (Colo320) (Colo320 [3]; calculated from IC50 values taken from ref 12): ≤ 0.68 | quenching constant logKQ' (HSA site I (Trp-214)): 5.7 | log D7.4 ([4]; 24 mM chloride): +0.09 ± 0.03 | log D7.4 ([4]; 100 mM chloride): +0.46 ± 0.03 | IC50 (Colo205 [5]): 68 ± 11 µM | DG marker displacement constant logKDG' (HSA site II): 6.1

Source: article PMC9820345, “Metal Complexes of a 5-Nitro-8-Hydroxyquinoline-Proline Hybrid with Enhanced Water Solubility Targeting Multidrug Resistant Cancer Cells” (International Journal of Molecular Sciences, 2022)
